Tested on: A549 lung cancer subcutaneous xenograft model
Assay: Tumor drug accumulation test, Pt in tumor by ICP-MS
Type: in vivo, Bal b/c nude mice
Conditions: tail vein injection, CPT 5 mg/kg and Pt 1.8 mg/kg
Description: The tumor model used in this example was A549 lung cancer subcutaneous xenograft model. Female Bal b/c nude mice at the age of 8 weeks were administrated with the drug formulation via tail vein injection at a dose of 200 microliters with CPT at 5 mg/kg and Pt at 1.8 mg/kg. Equivalent amounts of cisplatin and the self-assembled dual-drug nano-formulation cisplatin@PEG-PGlu(ss-CPT) served as controls. At different time points after the intravenous injection, the mice were dissected, and the tumor tissues were collected and fully dissolved in concentrated nitric acid. The Pt contents in the tumor tissues were measured using ICP-MS.

N.N.[Cl][Pt][Cl] [cisplatin]
drug (Pt) concentration / enrichment in the tumor: relatively low

Source: patent US20250009895A1, “DRUG LOADING MONOMOLECULAR NANO POLYMER, PRODRUG, MICELLE, DRUG DELIVERY SYSTEM, PREPARATION METHOD, AND USE” (priority 2021, published 2025)
